These results are taken from patent US12384852B2, “Genetically modified NK-92 cells having a safety switch” (ImmunityBio, Inc., priority 2015, dated 2025).

The subject of one data set is NK-92-TK-CD16-IL-2 cells. As to the kind of experiment: Functionality of the TK suicide gene: ganciclovir treatment of mice carrying NK-92-TK-CD16-IL-2 cells. The data set is classed as in vivo, SCID mice. As to conditions: ganciclovir 50 μg i.p. every other day, two or three doses; within 24 hours to 72 hours. The procedure: The mice in the first group are treated with two or three doses of ganciclovir (50 μg) intraperitoneally every other day. The mice in the second group are treated with placebo. […] Expansion of NK-92-TK-CD16-IL-2 cells continues to increase over time in mice treated with placebo.

For data set [1] the following is noted: clinical studies; cited from earlier work.

The structures appear in SMILES notation.

For `Nc1nc(O)c2ncn(COC(CO)CO)c2n1` [ganciclovir], the “change in NK-92-TK-CD16-IL-2 cells” value in the data set with NK-92-TK-CD16-IL-2 cells is “significant reduction”.
In the case of `CC[C@H](C(=O)N1CCCC[C@H]1C(=O)O[C@H](CCc1ccc(OC)c(OC)c1)c1cccc(OCC(=O)NCCNC(=O)COc2cccc([C@@H](CCc3ccc(OC)c(OC)c3)OC(=O)[C@@H]3CCCCN3C(=O)[C@@H](CC)c3cc(OC)c(OC)c(OC)c3)c2)c1)c1cc(OC)c(OC)c(OC)c1` [AP1903], the tolerability entry in data set [1] is reported as “well tolerated”.
